Results taken from ChEMBL document CHEMBL2021894, “The Discovery of VX-745: A Novel and Selective p38α Kinase Inhibitor” (ACS Med Chem Lett, 2011).
Activity calls are given as the source filed them. The calls are words filed in the database; no cut-off is given here.

Columns and labels:
[1] = system: Mus musculus; test: Antiarthritic activity in complete Freund's adjuvant-immunized DBA/1J mouse assessed as inhibition of type 2 collagen-induced bone and cartilage erosion at 10 mg/kg, po bid measured on day 20; format: functional; details: 480 h
[2] = Half life in BALB/c mouse at 2 mg/kg, iv; format: ADME, organism-based; set-up: dose 2 mg/kg, route intravenous; details: in vivo
[3] = biological target: Mitogen-activated protein kinase 10 (Homo sapiens) (UniProt P53779); test: Inhibition of JNK3 using KRELVEPLTPSGEAPNQALLR as substrate at 100 uM by spectrophotometric enzyme-coupled assay
[4] = biological target: Tyrosine-protein kinase Fes/Fps (Homo sapiens) (UniProt P07332); details: 2 uM
Description: Inhibition of FES at 2 uM

[5] = Clearance in BALB/c mouse at 2 mg/kg, iv; format: ADME, organism-based; set-up: dose 2 mg/kg, route intravenous; details: in vivo
[6] = biological target: MAP kinase-activated protein kinase 5 (Homo sapiens) (UniProt Q8IW41); test: Inhibition of PRAK at 2 uM
[7] = biological target: Fibroblast growth factor receptor 3 (Homo sapiens) (UniProt P22607); test: Inhibition of FGFR3 at 2 uM
[8] = biological target: Cytochrome P450 2C9 (Homo sapiens, UniProt P11712); test: Inhibition of human CYP2C9; format: ADME
[9] = biological target: Casein kinase I isoform alpha (Homo sapiens) (UniProt P48729); test: Inhibition of CK1 at 2 uM
[10] = AUC in Sprague-Dawley rat at 43 mg/kg, po; format: ADME, organism-based; set-up: dose 43 mg/kg, route oral; details: plasma
[11] = biological target: Cytochrome P450 2D6 (Homo sapiens, UniProt P10635); test: Inhibition of human CYP2D6; format: ADME
[12] = biological target: Cytochrome P450 3A4 (Homo sapiens, UniProt P08684); test: Inhibition of human CYP3A4; format: ADME
[13] = Plasma protein binding in rat; format: ADME, cell-free; details: read-out: PPB (converted)
[14] = biological target: Epidermal growth factor receptor (Homo sapiens) (UniProt P00533); details: 2 uM
Description: Inhibition of EGFR at 2 uM

[15] = biological target: Mitogen-activated protein kinase 11 (Homo sapiens) (UniProt Q15759); details: 100 uM
[16] = Cmax in BALB/c mouse at 40 mg/kg, po; format: ADME, organism-based; set-up: dose 40 mg/kg, route oral; details: in vivo
[17] = biological target: Ephrin type-B receptor 4 (Homo sapiens) (UniProt P54760); details: 2 uM
Description: Inhibition of EphB4 at 2 uM

[18] = biological target: Tyrosine-protein kinase Blk (Homo sapiens) (UniProt P51451); details: 2 uM
Description: Inhibition of Blk at 2 uM

[19] = biological target: Cytochrome P450 1A2 (Homo sapiens, UniProt P05177); test: Inhibition of human CYP1A2; format: ADME
[20] = Inhibition of Gsk3 by filter binding assay
[21] = system: Canis familiaris; test: Oral bioavailability in beagle dog at 33 mg/kg; format: ADME, organism-based, Canis lupus familiaris; details: in vivo
[22] = Clearance in Sprague-Dawley rat at 4.8 mg/kg, iv; format: ADME, organism-based; set-up: dose 4.8 mg/kg, route intravenous; details: in vivo
[23] = biological target: Inhibitor of nuclear factor kappa-B kinase subunit beta (Homo sapiens) (UniProt O14920); details: 2 uM
Description: Inhibition of IKKb at 2 uM

[24] = biological target: Insulin receptor (Homo sapiens) (UniProt P06213); details: 2 uM
Description: Inhibition of IRTK at 2 uM

[25] = system: Canis familiaris; test: AUC in beagle dog at 33 mg/kg, po; format: ADME, organism-based, Canis lupus familiaris, Plasma; set-up: dose 33 mg/kg, route oral; details: in vivo
[26] = Oral bioavailability in BALB/c mouse at 40 mg/kg; format: ADME, organism-based; details: in vivo
[27] = Half life in beagle dog at 33 mg/kg, po; format: ADME, organism-based, Canis lupus familiaris; set-up: dose 33 mg/kg, route oral; details: in vivo
[28] = biological target: Serine/threonine-protein kinase PAK 2 (Homo sapiens) (UniProt Q13177); details: 2 uM
Description: Inhibition of PAK2 at 2 uM

[29] = biological target: Protein kinase C iota type (Homo sapiens) (UniProt P41743); details: 2 uM
Description: Inhibition of PKCiota at 2 uM

[30] = AUC in BALB/c mouse at 40 mg/kg, po; format: ADME, organism-based; set-up: dose 40 mg/kg, route oral; details: plasma
[31] = Clearance in beagle dog at 13.8 mg/kg, iv; format: ADME, organism-based, Canis lupus familiaris; set-up: dose 13.8 mg/kg, route intravenous; details: in vivo
[32] = system: Mus musculus; test: Antiarthritic activity in complete Freund's adjuvant-immunized DBA/1J mouse assessed as inhibition of type 2 collagen-induced paw inflammation at 10 mg/kg, po bid measured on day 20; format: functional; details: 480 h
[33] = biological target: Dual specificity mitogen-activated protein kinase kinase 2 (Homo sapiens) (UniProt P36507); test: Inhibition of MEK2 at 2 uM
[34] = biological target: Protein kinase C beta type (Homo sapiens) (UniProt P05771); test: Inhibition of PKCb2 at 2 uM
[35] = biological target: Mitogen-activated protein kinase 3 (Homo sapiens) (UniProt P27361); details: 2 uM
Description: Inhibition of ERK1 at 2 uM

[36] = biological target: Tyrosine-protein kinase receptor UFO (Homo sapiens) (UniProt P30530); details: 2 uM
Description: Inhibition of Axl at 2 uM

[37] = system: Mus musculus; test: Antiarthritic activity in complete Freund's adjuvant-immunized DBA/1J mouse assessed as inhibition of type 2 collagen-induced bone and cartilage erosion at […], po bid measured on day 20; format: functional; details: 480 h, dose 2.5 mg/kg
[38] = system: PBMC; test: Antiproliferative activity against PHA-stimulated human PBMC assessed as inhibition of cell proliferation after 72 hrs by thymidine incorporation assay; format: cell-based
[39] = biological target: Serine/threonine-protein kinase N2 (Homo sapiens) (UniProt Q16513); test: Inhibition of PRK2 at 2 uM
[40] = biological target: Cyclin-dependent kinase 5 (Homo sapiens) (UniProt Q00535); details: 2 uM
Description: Inhibition of CDK5 at 2 uM

[41] = biological target: Protein kinase C theta type (Homo sapiens) (UniProt Q04759); details: 2 uM
Description: Inhibition of PKCtheta at 2 uM

[42] = biological target: Serine/threonine-protein kinase Chk1 (Homo sapiens) (UniProt O14757); details: 2 uM
Description: Inhibition of CHK1 at 2 uM

[43] = biological target: Dual specificity mitogen-activated protein kinase kinase 1 (Homo sapiens) (UniProt Q02750); test: Inhibition of Mek1 at 2 uM
[44] = Induction of human cytochrome P450; format: ADME
[45] = biological target: Tyrosine-protein kinase Lyn (Homo sapiens) (UniProt P07948); details: 2 uM
Description: Inhibition of Lyn at 2 uM

[46] = biological target: Tyrosine-protein kinase Lck (Homo sapiens) (UniProt P06239); test: Inhibition of LCK at 2 uM
[47] = system: Canis familiaris; test: AUC in beagle dog at 13.8 mg/kg, iv; format: ADME, organism-based, Canis lupus familiaris, Plasma; set-up: dose 13.8 mg/kg, route intravenous; details: in vivo
[48] = system: Mus musculus; test: Antiarthritic activity in complete Freund's adjuvant-immunized DBA/1J mouse assessed as inhibition of type 2 collagen-induced paw inflammation at […], po bid measured on day 20; format: functional; details: 480 h, dose 2.5 mg/kg
[49] = biological target: Cyclin-dependent kinase 1 (Homo sapiens) (UniProt P06493); details: 2 uM
Description: Inhibition of CDK1 at 2 uM

[50] = biological target: Mitogen-activated protein kinase 1 (Homo sapiens) (UniProt P28482); test: Inhibition of ERK2 using ATGPLSPGPFGRR as substrate at 100 uM by spectrophotometric enzyme-coupled assay

Sequence of Cyclin-dependent kinase 1 (Homo sapiens) (P06493 whole entry, looked up): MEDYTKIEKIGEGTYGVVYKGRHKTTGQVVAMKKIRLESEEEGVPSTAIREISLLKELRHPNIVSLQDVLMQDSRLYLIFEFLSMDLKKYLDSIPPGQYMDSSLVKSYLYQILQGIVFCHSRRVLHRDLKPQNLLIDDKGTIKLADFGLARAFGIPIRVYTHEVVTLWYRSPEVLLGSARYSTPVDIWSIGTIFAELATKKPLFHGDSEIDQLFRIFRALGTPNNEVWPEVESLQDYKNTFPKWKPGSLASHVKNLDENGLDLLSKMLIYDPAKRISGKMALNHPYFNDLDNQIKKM
Sequence of Serine/threonine-protein kinase Chk1 (Homo sapiens) (O14757 whole entry): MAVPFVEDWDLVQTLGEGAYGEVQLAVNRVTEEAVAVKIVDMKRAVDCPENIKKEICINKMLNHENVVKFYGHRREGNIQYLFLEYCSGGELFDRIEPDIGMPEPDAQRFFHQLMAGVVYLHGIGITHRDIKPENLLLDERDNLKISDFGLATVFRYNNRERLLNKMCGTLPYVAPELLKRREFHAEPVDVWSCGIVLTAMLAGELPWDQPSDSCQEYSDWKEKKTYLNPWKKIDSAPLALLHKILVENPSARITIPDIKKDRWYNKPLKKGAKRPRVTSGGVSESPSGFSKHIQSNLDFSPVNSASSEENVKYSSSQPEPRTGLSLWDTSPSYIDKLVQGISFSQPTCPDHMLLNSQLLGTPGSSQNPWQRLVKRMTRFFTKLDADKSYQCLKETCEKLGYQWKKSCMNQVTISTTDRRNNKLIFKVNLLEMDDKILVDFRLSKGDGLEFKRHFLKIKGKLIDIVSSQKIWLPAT
Sequence of Dual specificity mitogen-activated protein kinase kinase 1 (Homo sapiens) (Q02750 whole entry): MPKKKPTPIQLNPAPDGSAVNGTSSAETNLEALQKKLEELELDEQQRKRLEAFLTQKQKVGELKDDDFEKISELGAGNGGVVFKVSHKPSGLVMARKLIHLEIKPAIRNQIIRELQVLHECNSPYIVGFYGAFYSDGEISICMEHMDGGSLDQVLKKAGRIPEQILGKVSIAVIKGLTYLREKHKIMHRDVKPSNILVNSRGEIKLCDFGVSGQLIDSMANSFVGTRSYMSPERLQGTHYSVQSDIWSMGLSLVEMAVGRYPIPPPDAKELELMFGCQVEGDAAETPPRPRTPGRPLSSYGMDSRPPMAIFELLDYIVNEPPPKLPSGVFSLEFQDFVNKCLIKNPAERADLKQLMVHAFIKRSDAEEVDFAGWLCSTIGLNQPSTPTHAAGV
Sequence of Inhibitor of nuclear factor kappa-B kinase subunit beta (Homo sapiens) (O14920 whole entry): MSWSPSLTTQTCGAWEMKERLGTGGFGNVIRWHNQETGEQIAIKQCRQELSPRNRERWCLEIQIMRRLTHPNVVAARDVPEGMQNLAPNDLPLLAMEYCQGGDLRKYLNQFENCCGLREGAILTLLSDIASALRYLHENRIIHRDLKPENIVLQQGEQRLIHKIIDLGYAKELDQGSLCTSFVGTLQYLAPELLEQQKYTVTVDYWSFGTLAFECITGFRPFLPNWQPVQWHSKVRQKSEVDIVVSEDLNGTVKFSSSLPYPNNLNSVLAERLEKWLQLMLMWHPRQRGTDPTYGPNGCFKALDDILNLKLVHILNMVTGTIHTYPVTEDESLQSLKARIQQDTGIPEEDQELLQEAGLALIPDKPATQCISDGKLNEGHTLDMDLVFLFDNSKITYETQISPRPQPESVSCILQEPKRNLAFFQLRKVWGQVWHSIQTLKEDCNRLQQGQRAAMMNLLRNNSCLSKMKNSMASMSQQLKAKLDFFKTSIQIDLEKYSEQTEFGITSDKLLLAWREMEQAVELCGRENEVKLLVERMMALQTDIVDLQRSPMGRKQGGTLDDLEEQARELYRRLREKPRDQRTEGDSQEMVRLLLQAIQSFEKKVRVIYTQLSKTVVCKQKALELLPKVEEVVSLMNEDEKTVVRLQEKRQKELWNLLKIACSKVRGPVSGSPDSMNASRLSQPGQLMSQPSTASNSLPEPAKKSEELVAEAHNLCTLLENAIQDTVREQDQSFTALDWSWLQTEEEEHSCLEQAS
Sequence of Ephrin type-B receptor 4 (Homo sapiens) (P54760 whole entry): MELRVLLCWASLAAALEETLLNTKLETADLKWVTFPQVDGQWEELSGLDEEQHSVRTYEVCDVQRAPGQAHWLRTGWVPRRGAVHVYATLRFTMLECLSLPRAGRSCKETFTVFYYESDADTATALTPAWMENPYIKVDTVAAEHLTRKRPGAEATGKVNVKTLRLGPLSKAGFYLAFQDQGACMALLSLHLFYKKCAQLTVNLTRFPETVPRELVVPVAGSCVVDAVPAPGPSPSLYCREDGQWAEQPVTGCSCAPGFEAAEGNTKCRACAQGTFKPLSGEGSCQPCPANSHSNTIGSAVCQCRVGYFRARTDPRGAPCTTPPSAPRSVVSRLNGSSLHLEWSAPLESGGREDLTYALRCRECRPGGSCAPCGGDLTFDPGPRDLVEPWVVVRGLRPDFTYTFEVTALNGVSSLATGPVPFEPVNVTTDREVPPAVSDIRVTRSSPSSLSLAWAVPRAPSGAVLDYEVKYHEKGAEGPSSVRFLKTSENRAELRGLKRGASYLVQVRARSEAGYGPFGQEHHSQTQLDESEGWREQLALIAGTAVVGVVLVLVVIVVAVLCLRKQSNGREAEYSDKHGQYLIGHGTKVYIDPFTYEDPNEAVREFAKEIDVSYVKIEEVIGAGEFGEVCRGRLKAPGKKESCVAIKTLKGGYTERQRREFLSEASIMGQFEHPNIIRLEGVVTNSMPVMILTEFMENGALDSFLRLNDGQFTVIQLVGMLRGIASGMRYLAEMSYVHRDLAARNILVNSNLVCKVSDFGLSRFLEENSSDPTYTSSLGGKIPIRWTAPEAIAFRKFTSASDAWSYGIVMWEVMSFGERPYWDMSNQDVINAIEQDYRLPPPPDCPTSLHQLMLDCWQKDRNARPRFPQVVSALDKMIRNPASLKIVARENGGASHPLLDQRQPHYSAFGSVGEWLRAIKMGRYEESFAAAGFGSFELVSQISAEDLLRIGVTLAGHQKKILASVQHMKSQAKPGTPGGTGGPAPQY
Sequence of Protein kinase C theta type (Homo sapiens) (Q04759 whole entry, looked up): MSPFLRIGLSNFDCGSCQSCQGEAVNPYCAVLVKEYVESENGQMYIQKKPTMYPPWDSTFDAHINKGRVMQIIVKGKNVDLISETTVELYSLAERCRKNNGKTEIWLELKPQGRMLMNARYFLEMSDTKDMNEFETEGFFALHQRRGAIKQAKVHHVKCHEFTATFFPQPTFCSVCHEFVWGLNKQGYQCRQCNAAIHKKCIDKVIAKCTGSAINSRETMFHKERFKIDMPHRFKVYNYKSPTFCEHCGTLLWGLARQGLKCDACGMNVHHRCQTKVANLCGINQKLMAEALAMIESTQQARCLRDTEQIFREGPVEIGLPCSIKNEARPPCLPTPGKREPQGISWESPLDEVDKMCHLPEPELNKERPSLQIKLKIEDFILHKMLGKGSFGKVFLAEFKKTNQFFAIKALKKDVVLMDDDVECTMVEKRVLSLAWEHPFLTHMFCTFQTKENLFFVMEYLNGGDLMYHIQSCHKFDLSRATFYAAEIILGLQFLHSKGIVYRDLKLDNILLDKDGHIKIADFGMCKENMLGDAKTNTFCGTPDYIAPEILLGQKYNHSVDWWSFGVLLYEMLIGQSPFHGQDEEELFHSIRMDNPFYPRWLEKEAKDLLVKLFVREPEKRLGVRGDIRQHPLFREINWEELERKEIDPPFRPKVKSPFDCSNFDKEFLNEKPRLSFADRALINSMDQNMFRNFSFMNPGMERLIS
Sequence of Serine/threonine-protein kinase N2 (Homo sapiens) (Q16513 whole entry, looked up): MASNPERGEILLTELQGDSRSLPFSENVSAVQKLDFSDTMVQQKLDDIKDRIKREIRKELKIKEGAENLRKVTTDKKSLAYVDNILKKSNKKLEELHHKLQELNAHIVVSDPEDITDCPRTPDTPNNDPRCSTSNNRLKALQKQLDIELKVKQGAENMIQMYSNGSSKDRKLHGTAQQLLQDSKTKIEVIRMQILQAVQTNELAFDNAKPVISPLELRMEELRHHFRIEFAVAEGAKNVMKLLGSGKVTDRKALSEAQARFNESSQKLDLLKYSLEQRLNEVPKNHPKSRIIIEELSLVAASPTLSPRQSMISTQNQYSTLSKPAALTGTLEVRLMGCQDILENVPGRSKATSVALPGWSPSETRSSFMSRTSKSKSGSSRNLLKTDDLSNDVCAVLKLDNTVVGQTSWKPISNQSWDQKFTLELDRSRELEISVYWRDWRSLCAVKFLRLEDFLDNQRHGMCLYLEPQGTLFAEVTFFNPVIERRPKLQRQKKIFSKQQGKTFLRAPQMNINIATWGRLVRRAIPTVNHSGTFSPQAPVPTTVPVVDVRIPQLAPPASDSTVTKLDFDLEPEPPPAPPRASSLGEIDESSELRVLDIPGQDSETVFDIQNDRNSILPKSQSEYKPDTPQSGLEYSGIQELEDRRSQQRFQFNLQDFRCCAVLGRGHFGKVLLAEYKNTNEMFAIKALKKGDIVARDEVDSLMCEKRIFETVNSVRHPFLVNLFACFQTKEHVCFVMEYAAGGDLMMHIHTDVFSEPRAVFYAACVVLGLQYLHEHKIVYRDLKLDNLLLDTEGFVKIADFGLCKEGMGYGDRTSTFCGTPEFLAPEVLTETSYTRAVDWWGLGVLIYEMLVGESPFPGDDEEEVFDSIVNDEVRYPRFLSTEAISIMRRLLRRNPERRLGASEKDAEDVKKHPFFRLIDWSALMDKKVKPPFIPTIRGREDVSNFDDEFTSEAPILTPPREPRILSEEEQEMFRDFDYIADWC
Sequence of Dual specificity mitogen-activated protein kinase kinase 2 (Homo sapiens) (P36507 whole entry): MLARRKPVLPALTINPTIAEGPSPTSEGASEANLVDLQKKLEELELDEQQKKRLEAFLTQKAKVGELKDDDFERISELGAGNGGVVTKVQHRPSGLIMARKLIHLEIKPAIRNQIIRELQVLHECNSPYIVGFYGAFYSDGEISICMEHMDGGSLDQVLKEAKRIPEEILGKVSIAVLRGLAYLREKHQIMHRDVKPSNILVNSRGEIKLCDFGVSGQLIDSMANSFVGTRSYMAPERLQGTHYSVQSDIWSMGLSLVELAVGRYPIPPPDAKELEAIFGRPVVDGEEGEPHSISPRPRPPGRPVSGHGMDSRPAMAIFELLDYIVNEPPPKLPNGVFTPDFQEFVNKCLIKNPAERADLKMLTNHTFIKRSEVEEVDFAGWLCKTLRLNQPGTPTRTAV

For `O=c1ncn2nc(Sc3ccc(F)cc3F)ccc2c1-c1c(Cl)cccc1Cl` [NEFLAMAPIMOD], the inhibition in vivo at 10 mg/kg [1] was 39%, the half-life [2] was 2.6 h and the inhibition [3] was “inactive”. It also gave an inhibition [4] of 7%, a clearance [5] of 21 mL/min/kg and an inhibition [6] of 12%. It also gave an inhibition [7] of 20%, an IC50 [8] of over 40 µM and an inhibition [9] of 1%. The AUC [10] was 6300 ng·h/mL, the IC50 [11] was over 40 µM and the IC50 [12] was over 40 µM. For the same molecule, the fraction unbound [13] was 0.02, the inhibition [14] was 7% and the inhibition [15] was “inactive”. For the same molecule, the Cmax [16] was 7850 ng/mL, the inhibition [17] was 16% and the inhibition [18] was 0%. For the same molecule, the IC50 [19] was over 40 µM, the IC50 [20] was over 5 µM and the F [21] was 69%. For the same molecule, the clearance [22] was 63 mL/min/kg, the inhibition [23] was 0% and the inhibition [24] was 0%. The AUC [25] was 4340 ng·h/mL, the bioavailability [26] was 87% and the half-life [27] was 4.5 h. It also gave an inhibition [28] of 0%, an inhibition [29] of 0% and an AUC [30] of 27000 ng·h/mL. For the same molecule, the clearance [31] was 39 mL/min/kg, the inhibition in vivo at 10 mg/kg [32] was 44% and the inhibition [33] was 14%. It also gave an inhibition [34] of 5%, an inhibition [35] of 0% and an inhibition [36] of 0%. For the same molecule, the inhibition in vivo at […] [37] was 35%, the Activity [38] was “Non-toxic” and the inhibition [39] was 13%. For the same molecule, the inhibition [40] was 0%, the inhibition [41] was 0% and the inhibition [42] was 0%. For the same molecule, the inhibition [43] was 5%, the Activity [44] was “Not Active” and the inhibition [45] was 0%. The inhibition [46] was 20%, the AUC [47] was 6120 ng·h/mL and the inhibition in vivo at […] [48] was 27%. For the same molecule, the inhibition [49] was 0% and the inhibition [50] was “inactive”.
